Measured values from patent US20240269298A1, “PHOSPHONYL DERIVATIVE, AND COMPOSITION AND PHARMACEUTICAL APPLICATION THEREOF” (XIZANG HAISCO PHARMACEUTICAL CO., LTD., priority 2021, published 2024).
Where two headings read alike, the source gives them in different places.

Tested on: NCI-H1975 (EGFR-L858R-T790M) cells
Assay: Inhibitory activity on proliferation of NCI-H1975 (EGFR-L858R-T790M) cells (CTG, 72 h)
Format: cell-based
Details: Homo sapiens
Procedure: NCI-H1975 (EGFR-L858R-T790M) and A431 (EGFR-WT) cells were purchased from ATCC and cultured in an incubator at 37° C. with 5% CO2, and the culture mediums were RPMI1640+10% FBS and DMEM+10% FBS, respectively. On the first day, NCI-H1975 (EGFR-L858R-T790M) and A431 (EGFR-WT) cells in the logarithmic phase were collected, and viable cells were counted using an automatic cell analyzer (countstar). The cell suspensions were adjusted with the culture mediums and plated on a 96-well cell culture plate at 1000 cells/well for NCI-H1975 (EGFR-L858R-T790M) cells and at 3000 cells/well for A431 cells. The next day, the culture mediums were aspirated, and 90 μL of fresh culture mediums and 10 μL of the compounds at different concentrations were added to each well, wherein the final concentration of DMSO in each well was 0.1%. The plate was cultured in the incubator at 37° C. with 5% CO2 for 72 hours. After 72 hours of drug treatment, 50 μL of CTG solution (promega, G7572), which was already pre-melted and equilibrated to room temperature, was added to each well, and the mixtures were uniformly mixed for 2 min using a microplate shaker. The plate was placed at room temperature for 10 min, and then […] signal values were measured using a microplate reader (PHERAstar FSX).
Surviving cells % was calculated based on Vsample/Vvehicle control×100%, wherein Vsample was the readout of the drug-treated group, and Vvehicle control was the average value of the vehicle control group. Using the origin 9.2 software and nonlinear regression model, S-shaped dose-survival curves were plotted, and IC50 values were calculated.

[1] = read-out: IC50 (value in brackets)

Row | SMILES | IC50 (read-out: IC50 (class symbol)) [µM] | IC50 [1] [µM]
1 | COc1cc(N2CCN(C[C@H]3CCN(c4ccc5c(c4)C(=O)N(C4CCC(=O)NC4=O)C5=O)C3)CC2)c(-c2cnn(C)c2)cc1Nc1ncc(Cl)c(Nc2ccccc2P(C)(C)=O)n1 (stereo partly drawn) [Compound 120, 5-((R)-3-((4-(4-((5-chloro-4-((2-(dimethylphosphoryl)phenyl)amino)pyrimidin-2-yl)amino)-5-methoxy-2-(1-methyl-1H-pyrazol-4-yl)phenyl)piperazin-1-yl)methyl)pyrrolidin-1-yl)-2-(2,6-dioxopiperidin-3-yl)isoindoline-1,3-dione] | < 0.1 | 0.025
2 | COc1cc(N2CCC3(CCN(CC4CCN(c5ccc6c(c5)C(=O)N(C5CCC(=O)NC5=O)C6=O)CC4)CC3)CC2)c(C2CC2)cc1Nc1ncc(Br)c(Nc2ccc3nccnc3c2P(C)(C)=O)n1 (stereo not drawn) [Compound 3, 5-(4-((9-(4-((5-bromo-4-((5-(dimethylphosphoryl)quinoxalin-6-yl)amino)pyrimidin-2-yl)amino)-2-cyclopropyl-5-methoxyphenyl)-3,9-diazaspiro[5.5]undecan-3-yl)methyl)piperidin-1-yl)-2-(2,6-dioxopiperidin-3-yl)isoindoline-1,3-dione] | < 0.1 | 0.075
3 | COc1cc(N2CCC(N3CCC(CN4CCN(c5ccc6c(c5)C(=O)N(C5CCC(=O)NC5=O)C6=O)CC4)CC3)CC2)c(-c2cnn(C)c2)cc1Nc1ncc(Br)c(Nc2ccc(-c3ccccc3)cc2P(C)(C)=O)n1 (stereo not drawn) [Compound 43, 5-(4-((1′-(4-((5-bromo-4-((3-(dimethylphosphoryl)-[1,1′-biphenyl]-4-yl)amino)pyrimidin-2-yl)amino)-5-methoxy-2-(1-methyl-1H-pyrazol-4-yl)phenyl)-[1,4′-bipiperidin]-4-yl)methyl)piperazin-1-yl)-2-(2,6-dioxopiperidin-3-yl)isoindoline-1,3-dione] | < 0.1 | 0.08
4 | COc1cc(N2CCC(CN3CCN(c4ccc(N5CCC(=O)NC5=O)cc4)CC3)CC2)c(-c2cnn(C)c2)cc1Nc1ncc(Cl)c(Nc2ccc(-c3ccccc3)cc2P(C)(C)=O)n1 [Compound 136, 1-(4-(4-((1-(4-((5-chloro-4-((3-(dimethylphosphoryl)-[1,1′-biphenyl]-4-yl)amino)pyrimidin-2-yl)amino)-5-methoxy-2-(1-methyl-1H-pyrazol-4-yl)phenyl)piperidin-4-yl)methyl)piperazin-1-yl)phenyl)dihydropyrimidine-2,4(1H,3H)-dione] | 0.1 to 0.5 | 0.393
5 | COc1cc(N2CCC(N3CCN(c4ccc5c(c4)C(=O)N(C4CCC(=O)NC4=O)C5=O)CC3)CC2)c(-c2cnn(C)c2)cc1Nc1ncc(Br)c(Nc2ccccc2P(C)(C)=O)n1 (stereo not drawn) [Compound 114, 5-(4-(1-(4-((5-bromo-4-((2-(dimethylphosphoryl)phenyl)amino)pyrimidin-2-yl)amino)-5-methoxy-2-(1-methyl-1H-pyrazol-4-yl)phenyl)piperidin-4-yl)piperazin-1-yl)-2-(2,6-dioxopiperidin-3-yl)isoindoline-1,3-dione] | < 0.1 | 0.06
6 | COc1cc(N2CCC(N3CCC4(CCCN(c5ccc6c(c5)C(=O)N(C5CCC(=O)NC5=O)C6=O)C4)CC3)CC2)c(-c2cnn(C)c2)cc1Nc1ncc(Cl)c(Nc2ccc3nccnc3c2P(C)(C)=O)n1 (stereo not drawn) [Compound 11, 5-(9-(1-(4-((5-chloro-4-((5-(dimethylphosphoryl)quinoxalin-6-yl)amino)pyrimidin-2-yl)amino)-5-methoxy-2-(1-methyl-1H-pyrazol-4-yl)phenyl)piperidin-4-yl)-2,9-diazaspiro[5.5]undecan-2-yl)-2-(2,6-dioxopiperidin-3-yl)isoindoline-1,3-dione] | < 0.1 | 0.007
7 | COc1cc(N2CCC(CN3CCN(c4ccc(C5CCC(=O)NC5=O)c(F)c4)CC3)CC2)c(-c2cnn(C)c2)cc1Nc1ncc(Cl)c(Nc2ccc(C3CC3)cc2P(C)(C)=O)n1 (stereo not drawn) [Compound 153, 3-(4-(4-((1-(4-((5-chloro-4-((4-cyclopropyl-2-(dimethylphosphoryl)phenyl)amino)pyrimidin-2-yl)amino)-5-methoxy-2-(1-methyl-1H-pyrazol-4-yl)phenyl)piperidin-4-yl)methyl)piperazin-1-yl)-2-fluorophenyl)piperidine-2,6-dione] | < 0.1 | 0.073
8 | COc1cc(N2CCC(CN3CCC4(CC3)CCN(c3cc5c(cc3F)C(=O)N(C3CCC(=O)NC3=O)C5=O)CC4)CC2)c(-c2cnn(C)c2)cc1Nc1ncc(Cl)c(Nc2ccc(-c3ccccc3)cc2P(C)(C)=O)n1 (stereo not drawn) [Compound 52, 5-(9-((1-(4-((5-chloro-4-((3-(dimethylphosphoryl)-[1,1′-biphenyl]-4-yl)amino)pyrimidin-2-yl)amino)-5-methoxy-2-(1-methyl-1H-pyrazol-4-yl)phenyl)piperidin-4-yl)methyl)-3,9-diazaspiro[5.5]undecan-3-yl)-2-(2,6-dioxopiperidin-3-yl)-6-fluoroisoindoline-1,3-dione] | < 0.1 | 0.084
9 | COc1cc(N2CCC(N3CCC(CN4CCC5(CCCN(c6ccc7c(c6)C(=O)N(C6CCC(=O)NC6=O)C7=O)C5)CC4)CC3)CC2)c(-c2cnn(C)c2)cc1Nc1ncc(Cl)c(Nc2ccc3nccnc3c2P(C)(C)=O)n1 (stereo not drawn) [Compound 16, 5-(9-((1′-(4-((5-chloro-4-((5-(dimethylphosphoryl)quinoxalin-6-yl)amino)pyrimidin-2-yl)amino)-5-methoxy-2-(1-methyl-1H-pyrazol-4-yl)phenyl)-[1,4′-bipiperidin]-4-yl)methyl)-2,9-diazaspiro[5.5]undecan-2-yl)-2-(2,6-dioxopiperidin-3-yl)isoindoline-1,3-dione] | < 0.1 | 0.073
10 | COc1cc(N2CCC(N3CCN(CC4CCN(c5cc6c(cc5F)C(=O)N(C5CCC(=O)NC5=O)C6=O)CC4)CC3)CC2)c(-c2cnn(C)c2)cc1Nc1ncc(Br)c(Nc2ccc3nccnc3c2P(C)(C)=O)n1 (stereo not drawn) [Compound 29, 5-(4-((4-(1-(4-((5-bromo-4-((5-(dimethylphosphoryl)quinoxalin-6-yl)amino)pyrimidin-2-yl)amino)-5-methoxy-2-(1-methyl-1H-pyrazol-4-yl)phenyl)piperidin-4-yl)piperazin-1-yl)methyl)piperidin-1-yl)-2-(2,6-dioxopiperidin-3-yl)-6-fluoroisoindoline-1,3-dione] | < 0.1 | 0.033
11 | COc1cc(N2CCN(C[C@H]3CCN(c4ccc5c(c4)C(=O)N(C4CCC(=O)NC4=O)C5=O)C3)CC2)c(-c2cnn(C)c2)cc1Nc1ncc(Br)c(Nc2ccccc2P(C)(C)=O)n1 (stereo partly drawn) [Compound 122, 5-((R)-3-((4-(4-((5-bromo-4-((2-(dimethylphosphoryl)phenyl)amino)pyrimidin-2-yl)amino)-5-methoxy-2-(1-methyl-1H-pyrazol-4-yl)phenyl)piperazin-1-yl)methyl)pyrrolidin-1-yl)-2-(2,6-dioxopiperidin-3-yl)isoindoline-1,3-dione] | < 0.1 | 0.016
12 | COc1cc(N2CCC(CN3CCC4(CC3)CCN(c3ccc(C(=O)NC5CCC(=O)NC5=O)nc3)CC4)CC2)c(-c2cnn(C)c2)cc1Nc1ncc(Br)c(Nc2ccc(-c3ccccc3)cc2P(C)(C)=O)n1 (stereo not drawn) [Compound 69, 5-(9-((1-(4-((5-bromo-4-((3-(dimethylphosphoryl)-[1,1′-biphenyl]-4-yl)amino)pyrimidin-2-yl)amino)-5-methoxy-2-(1-methyl-1H-pyrazol-4-yl)phenyl)piperidin-4-yl)methyl)-3,9-diazaspiro[5.5]undecan-3-yl)-N-(2,6-dioxopiperidin-3-yl)picolinamide] | < 0.1 | 0.034
13 | COc1cc(N2CCN(C3CN(c4ccc5c(c4)C(=O)N(C4CCC(=O)NC4=O)C5=O)C3)CC2)c(-c2cnn(C)c2)cc1Nc1ncc(Br)c(Nc2ccccc2P(C)(C)=O)n1 (stereo not drawn) [Compound 151, 5-(3-(4-(4-((5-bromo-4-((2-(dimethylphosphoryl)phenyl)amino)pyrimidin-2-yl)amino)-5-methoxy-2-(1-methyl-1H-pyrazol-4-yl)phenyl)piperazin-1-yl)azetidin-1-yl)-2-(2,6-dioxopiperidin-3-yl)isoindoline-1,3-dione] | < 0.1 | 0.035
14 | COc1cc(N2CCC(N3CCC4(CCCN(c5ccc6c(c5)C(=O)N(C5CCC(=O)NC5=O)C6=O)C4)CC3)CC2)c(-c2cnn(C)c2)cc1Nc1ncc(Br)c(Nc2ccc3nccnc3c2P(C)(C)=O)n1 (stereo not drawn) [Compound 32, 5-(9-(1-(4-((5-bromo-4-((5-(dimethylphosphoryl)quinoxalin-6-yl)amino)pyrimidin-2-yl)amino)-5-methoxy-2-(1-methyl-1H-pyrazol-4-yl)phenyl)piperidin-4-yl)-2,9-diazaspiro[5.5]undecan-2-yl)-2-(2,6-dioxopiperidin-3-yl)isoindoline-1,3-dione] | < 0.1 | 0.01
15 | COc1cc(N2CCC(CN3CCN(c4ccc(C5CCC(=O)NC5=O)cc4)CC3)CC2)c(-c2cnn(C)c2)cc1Nc1ncc(Cl)c(Nc2ccc(C3CC3)cc2P(C)(C)=O)n1 (stereo not drawn) [Compound 152, 3-(4-(4-((1-(4-((5-chloro-4-((4-cyclopropyl-2-(dimethylphosphoryl)phenyl)amino)pyrimidin-2-yl)amino)-5-methoxy-2-(1-methyl-1H-pyrazol-4-yl)phenyl)piperidin-4-yl)methyl)piperazin-1-yl)phenyl)piperidine-2,6-dione] | < 0.1 | 0.068
